Data published in ChEMBL document CHEMBL1201862, “PubChem BioAssay data set” (2004).
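Five compound concentrations were applied to cells in 96-well plates for 48 hours; endpoints were derived by simple linear interpolation of the resulting dose-response curve. GI50: concentration for 50% inhibition of growth.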 Active and inactive are the calls of the source. Rule as the data show it: active = GI50 up to about 1.1 µM and inactive = higher.

Key:
Experiment in all cases: NCI anticancer screen, dose series, 48 h
UO-31 = test system: UO-31
SN12C = test system: SN12C
HOP-92 = test system: HOP-92
SW-620 = test system: SW-620
SNB-75 = test system: SNB-75
SF-268 = test system: SF-268
PC-3 = test system: PC-3
NCI-H460 = test system: NCI-H460
HOP-62 = test system: HOP-62
OVCAR-3 = test system: OVCAR-3
ACHN = test system: ACHN
RPMI-8226 = test system: RPMI-8226
LOX IMVI = test system: LOX IMVI
HCT-15 = test system: HCT-15
A498 = test system: A498
MOLT-4 = test system: MOLT-4
A549 = test system: A549
Hs-578T = test system: Hs-578T
CAKI-1 = test system: CAKI-1
Malme-3M = test system: Malme-3M
OVCAR-4 = test system: OVCAR-4
CCRF-CEM = test system: CCRF-CEM
SF-295 = test system: SF-295
OVCAR-8 = test system: OVCAR-8
OVCAR-5 = test system: OVCAR-5
NCI-H522 = test system: NCI-H522
786-0 = test system: 786-0
NCI-H23 = test system: NCI-H23
MDA-MB-435 = test system: MDA-MB-435
MDA-MB-231 = test system: MDA-MB-231
IGROV-1 = test system: IGROV-1
UACC-62 = test system: UACC-62
HCT-116 = test system: HCT-116
SR = test system: SR
K562 = test system: K562
MCF7 = test system: MCF7
SK-MEL-5 = test system: SK-MEL-5
NCI/ADR-RES = test system: NCI/ADR-RES
UACC-257 = test system: UACC-257
EKVX = test system: EKVX
BT-549 = test system: BT-549
SK-MEL-2 = test system: SK-MEL-2
M14 = test system: M14
HCC 2998 = test system: HCC 2998
MDA-N = test system: MDA-N
SK-MEL-28 = test system: SK-MEL-28
T47D = test system: T47D
DU-145 = test system: DU-145
NCI-H226 = test system: NCI-H226
U-251 = test system: U-251
RXF 393 = test system: RXF 393
SNB-19 = test system: SNB-19
TK-10 = test system: TK-10
COLO 205 = test system: COLO 205
KM12 = test system: KM12
HT-29 = test system: HT-29
SK-OV-3 = test system: SK-OV-3
HL-60 = test system: HL-60
SF-539 = test system: SF-539

O=[N+]([O-])C1=Cc2cc(Cl)ccc2OC1c1cccc2ccccc12 (stereo unspecified)
GI50 (UO-31): 1.26 µM (inactive)
GI50 (SN12C): 0.723 µM (active)
GI50 (HOP-92): 1.34 µM (inactive)
GI50 (SW-620): 0.149 µM (active)
GI50 (SNB-75): 0.6 µM (active)
GI50 (SF-268): 1.26 µM (inactive)
GI50 (PC-3): 0.635 µM (active)
GI50 (NCI-H460): 1.7 µM (inactive)
GI50 (HOP-62): 0.871 µM (active)
GI50 (OVCAR-3): 0.603 µM (active)
GI50 (ACHN): 1.52 µM (inactive)
GI50 (RPMI-8226): 0.317 µM (active)
GI50 (LOX IMVI): 0.29 µM (active)
GI50 (HCT-15): 0.37 µM
GI50 (A498): 1.86 µM (inactive)
GI50 (MOLT-4): 0.251 µM (active)
GI50 (A549): 1.7 µM (inactive)
GI50 (Hs-578T): 0.692 µM (active)
GI50 (CAKI-1): 0.366 µM (active)
GI50 (Malme-3M): 1.57 µM (inactive)
GI50 (OVCAR-4): 1.57 µM (inactive)
GI50 (CCRF-CEM): 0.191 µM (active)
GI50 (SF-295): 2.38 µM (inactive)
GI50 (OVCAR-8): 0.614 µM (active)
GI50 (OVCAR-5): 1.99 µM (inactive)
GI50 (NCI-H522): 1.27 µM (inactive)
GI50 (786-0): 0.396 µM (active)
GI50 (NCI-H23): 0.847 µM (active)
GI50 (MDA-MB-435): 1.44 µM (inactive)
GI50 (MDA-MB-231): 1.77 µM (inactive)
GI50 (IGROV-1): 0.625 µM (active)
GI50 (UACC-62): 1.57 µM (inactive)
GI50 (HCT-116): 0.187 µM (active)
GI50 (SR): 0.224 µM (active)
GI50 (K562): 0.371 µM (active)
GI50 (MCF7): 0.521 µM (active)
GI50 (SK-MEL-5): 1.26 µM (inactive)
GI50 (NCI/ADR-RES): 2.07 µM (inactive)
GI50 (UACC-257): 1.34 µM (inactive)
GI50 (EKVX): 1.27 µM (inactive)
GI50 (BT-549): 0.436 µM (active)
GI50 (SK-MEL-2): 1.36 µM (inactive)
GI50 (M14): 1.23 µM (inactive)
GI50 (HCC 2998): 0.984 µM (active)
GI50 (MDA-N): 1 µM (active)
GI50 (SK-MEL-28): 1.34 µM (inactive)
GI50 (T47D): 0.442 µM (active)
GI50 (DU-145): 1.91 µM (inactive)
GI50 (NCI-H226): 1.62 µM (inactive)
GI50 (U-251): 1.56 µM (inactive)
GI50 (RXF 393): 0.405 µM (active)
GI50 (SNB-19): 1.65 µM (inactive)
GI50 (TK-10): 1.27 µM (inactive)
GI50 (COLO 205): 0.719 µM (active)
GI50 (KM12): 1.79 µM (inactive)
GI50 (HT-29): 0.637 µM (active)
GI50 (SK-OV-3): 1.61 µM (inactive)
GI50 (HL-60): 3.83 µM (inactive)

CCOC(=O)[C@@H](Cc1ccc(CCl)cc1)NC(C)=O
GI50 (UO-31): 19.2 µM (inactive)
GI50 (SN12C): 24 µM (inactive)
GI50 (HOP-92): 23.4 µM (inactive)
GI50 (SW-620): 31 µM (inactive)
GI50 (SNB-75): 26.6 µM (inactive)
GI50 (SF-268): 24 µM (inactive)
GI50 (PC-3): 29 µM (inactive)
GI50 (NCI-H460): 19 µM (inactive)
GI50 (HOP-62): 23.9 µM (inactive)
GI50 (OVCAR-3): 30.1 µM (inactive)
GI50 (ACHN): 20.5 µM (inactive)
GI50 (RPMI-8226): 22.6 µM (inactive)
GI50 (LOX IMVI): 19 µM (inactive)
GI50 (HCT-15): 27.4 µM
GI50 (MOLT-4): 29.2 µM (inactive)
GI50 (A549): 97.1 µM (inactive)
GI50 (Hs-578T): 25.5 µM (inactive)
GI50 (CAKI-1): 25.6 µM (inactive)
GI50 (Malme-3M): 19.2 µM (inactive)
GI50 (OVCAR-4): 19.9 µM (inactive)
GI50 (CCRF-CEM): 26.7 µM (inactive)
GI50 (SF-295): 32.8 µM (inactive)
GI50 (OVCAR-8): 50.8 µM (inactive)
GI50 (OVCAR-5): 20.6 µM (inactive)
GI50 (NCI-H522): 17.6 µM (inactive)
GI50 (786-0): 19.1 µM (inactive)
GI50 (NCI-H23): 25 µM (inactive)
GI50 (MDA-MB-435): 19.9 µM (inactive)
GI50 (MDA-MB-231): 27.1 µM (inactive)
GI50 (IGROV-1): 23.7 µM (inactive)
GI50 (UACC-62): 15.9 µM (inactive)
GI50 (HCT-116): 30.3 µM (inactive)
GI50 (SR): 29.4 µM (inactive)
GI50 (K562): 34.4 µM (inactive)
GI50 (MCF7): 26.1 µM (inactive)
GI50 (SK-MEL-5): 16 µM (inactive)
GI50 (NCI/ADR-RES): 19.9 µM (inactive)
GI50 (UACC-257): 17.2 µM (inactive)
GI50 (EKVX): 22.2 µM (inactive)
GI50 (BT-549): 31.1 µM (inactive)
GI50 (SK-MEL-2): 17.1 µM (inactive)
GI50 (M14): 24.8 µM (inactive)
GI50 (HCC 2998): 17.7 µM (inactive)
GI50 (MDA-N): 19 µM (inactive)
GI50 (SK-MEL-28): 27.5 µM (inactive)
GI50 (T47D): 26.3 µM (inactive)
GI50 (DU-145): 38.1 µM (inactive)
GI50 (NCI-H226): 28.1 µM (inactive)
GI50 (U-251): 19.6 µM (inactive)
GI50 (RXF 393): 14 µM (inactive)
GI50 (SNB-19): 27.2 µM (inactive)
GI50 (TK-10): 4.71 µM (inactive)
GI50 (COLO 205): 18.1 µM (inactive)
GI50 (KM12): 20.2 µM (inactive)
GI50 (HT-29): 75.3 µM (inactive)
GI50 (SF-539): 18.3 µM (inactive)
GI50 (SK-OV-3): 98.2 µM (inactive)
GI50 (HL-60): 27 µM (inactive)
